Test results taken from patent US10709709B2, “Substituted carbonucleoside derivatives useful as anticancer agents” (Pfizer Inc., priority 2016, dated 2020).
Structures can show the parent of a compound that is named as a salt.

Assays:
[1] = target: PRMT5/MEP50 protein complex (Homo sapiens (Human), UniProt O14744); assay: PRMT5 biochemical assay (3H-SAM methylation of H4(1-21) peptide, filter plate scintillation); settings: 10 nM PRMT5/MEP50 complex, 200 nM H4(1-21) peptide, 1 uM SAM, 25 minute incubation at room temperature
PRMT5/MEP50 protein complex, sequence (O14744 other isoform, or with tags, fused parts or gaps): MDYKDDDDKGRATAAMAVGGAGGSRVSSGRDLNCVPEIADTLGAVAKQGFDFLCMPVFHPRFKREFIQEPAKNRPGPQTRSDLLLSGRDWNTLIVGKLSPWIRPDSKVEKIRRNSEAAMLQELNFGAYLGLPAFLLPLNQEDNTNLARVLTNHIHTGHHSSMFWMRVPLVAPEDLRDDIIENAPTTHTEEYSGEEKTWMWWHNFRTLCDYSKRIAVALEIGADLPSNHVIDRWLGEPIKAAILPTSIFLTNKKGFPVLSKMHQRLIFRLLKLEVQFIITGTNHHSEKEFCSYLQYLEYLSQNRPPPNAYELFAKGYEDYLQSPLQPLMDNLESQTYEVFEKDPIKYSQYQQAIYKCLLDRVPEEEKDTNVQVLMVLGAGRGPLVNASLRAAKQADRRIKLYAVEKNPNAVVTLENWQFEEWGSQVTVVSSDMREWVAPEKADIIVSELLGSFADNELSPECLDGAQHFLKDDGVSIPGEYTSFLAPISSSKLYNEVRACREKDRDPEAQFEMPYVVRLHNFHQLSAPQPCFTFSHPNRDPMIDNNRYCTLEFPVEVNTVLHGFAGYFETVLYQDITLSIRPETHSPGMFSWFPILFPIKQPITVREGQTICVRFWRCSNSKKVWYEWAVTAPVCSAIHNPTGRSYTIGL
PRMT5/MEP50 protein complex, sequence (Q9BQA1 whole entry partner): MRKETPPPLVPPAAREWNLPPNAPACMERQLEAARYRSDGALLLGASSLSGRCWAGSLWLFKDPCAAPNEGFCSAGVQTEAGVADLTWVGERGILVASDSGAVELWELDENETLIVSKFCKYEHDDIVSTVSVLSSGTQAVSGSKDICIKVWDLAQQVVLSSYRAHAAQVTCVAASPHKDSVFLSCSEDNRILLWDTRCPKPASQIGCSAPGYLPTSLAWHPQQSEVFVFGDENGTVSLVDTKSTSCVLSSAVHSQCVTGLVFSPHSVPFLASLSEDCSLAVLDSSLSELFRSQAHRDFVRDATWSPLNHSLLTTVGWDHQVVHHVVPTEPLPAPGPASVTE
In short: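 Scintillation read-out: after 25 min at room temperature and a TCA stop, tritiated H4(1-21) product (peptide 200 nM) is caught on a filter plate. Reaction holds 10 nM PRMT5/MEP50 and 1 uM 3H-labelled plus cold SAM in 50 mM Tris pH 8.5 with MgCl2, EDTA and TCEP. IC50 values come from a 4-parameter dose-response fit.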

[2] = test system: A549 lung adenocarcinoma cells; assay: A549 proliferation assay (Cell Titer Glo); type: cell-based; settings: 7 days with compound, cell viability by Cell Titer Glo (ATP)
Protocol: A549 lung adenocarcinoma cells (American Type Culture Collection) were maintained in DMEM growth media (Life Technologies) supplemented with 10% v/v heat inactivated fetal bovine serum (Sigma) and cultured at 37° C., 5% CO2. Exponentially growing A549 cells were plated in 96-well black tissue culture treated plates (Corning) at a density of […] in a volume of 100 μl culture media and allowed to adhere overnight at 37° C., 5% CO2. The following day, compound plates were prepared by making nine-point 3.3-fold dilutions in DMSO with a top concentration of 10 mM. Compounds were further diluted in culture media and 11 μl was added to the cells (final top assay concentration was 10 μM and DMSO was 0.2%). Cells were incubated with compound at 37° C., 5% CO2 for 7 days with media and compound replacement on day 4. Cell viability was assayed on Day 7 by adding 100 μl Cell Titer Glo (Promega) reagent to the plate to measure the amount of ATP present in the cells. Luminescence was read using the Envision 2104 Multilabel Reader (Perkin Elmer). The 50% inhibitory concentration (IC50) was determined using a 4-parameter fit model normalized to the DMSO control in dose response.

SMILES	IC50 [1] [nM]	IC50 ([2]; Homo sapiens, A549, 168 h) [nM]	IC50 [2] [nM]	IC50 ([2]; Homo sapiens, 168 h) [nM]	IC50 ([2]; hydrochloride) [nM]
Cc1ncc2c(F)cn([C@@H]3C[C@H](Oc4cc(C#N)cc5c4CNCC5)[C@@H](O)[C@H]3O)c2n1 [Example 173, 8-(((1S,2S,3S,4R)-4-(5-fluoro-2-methyl-7H-pyrrolo[2,3-d]pyrimidin-7-yl)-2,3-dihydroxycyclopentyl)oxy)-1,2,3,4-tetrahydroisoquinoline-6-carbonitrile]	3	3570	–	–	–
Nc1ncnc2c1c(F)cn2[C@@H]1C[C@H](Oc2ccc(F)c3c2CNCC3)[C@@H](O)[C@H]1O [Example 100, (1S,2S,3R,5S)-3-(4-amino-5-fluoro-7H-pyrrolo[2,3-d]pyrimidin-7-yl)-5-((5-fluoro-1,2,3,4-tetrahydroisoquinolin-8-yl)oxy)cyclopentane-1,2-diol]	1	185	–	–	–
Nc1ncnc2c1c(Br)cn2[C@@H]1C[C@H](Oc2ccc(F)c3c2CNCC3)[C@@H](O)[C@H]1O [Example 134, (1S,2S,3R,5S)-3-(4-amino-5-bromo-7H-pyrrolo[2,3-d]pyrimidin-7-yl)-5-((5-fluoro-1,2,3,4-tetrahydroisoquinolin-8-yl)oxy)cyclopentane-1,2-diol]	1	640	–	–	–
Cc1ncnc2c1ccn2[C@@H]1C[C@H](Oc2cccc3c2CN[C@@H](C)CO3)[C@@H](O)[C@H]1O [Example 207, (1S,2S,3S,5R)-3-(((S)-3-methyl-2,3,4,5-tetrahydrobenzo[f][1,4]oxazepin-6-yl)oxy)-5-(4-methyl-7H-pyrrolo[2,3-d]pyrimidin-7-yl)cyclopentane-1,2-diol]	24	1480	–	–	–
Nc1ncnc2c1c(F)cn2[C@@H]1C[C@H](Oc2cc(Br)c(F)c3c2CNCC3)[C@@H](O)[C@H]1O [Example 109, (1S,2S,3R,5S)-3-(4-amino-5-fluoro-7H-pyrrolo[2,3-d]pyrimidin-7-yl)-5-((6-bromo-5-fluoro-1,2,3,4-tetrahydroisoquinolin-8-yl)oxy)cyclopentane-1,2-diol]	1	67	–	–	–
Cc1ncnc2c1ccn2[C@@H]1C[C@H](Cc2ccc(Cl)cc2CN)[C@@H](O)[C@H]1O [Example 55, (1S,2R,3S,5R)-3-(2-(aminomethyl)-4-chlorobenzyl)-5-(4-methyl-7H-pyrrolo[2,3-d]pyrimidin-7-yl)cyclopentane-1,2-diol]	2	3170	–	–	–
Cc1cc2c(c(O[C@H]3C[C@@H](n4cc(C)c5c(N)ncnc54)[C@H](O)[C@@H]3O)c1)CNCC2 [Example 122, (1S,2S,3R,5S)-3-(4-amino-5-methyl-7H-pyrrolo[2,3-d]pyrimidin-7-yl)-5-((6-methyl-1,2,3,4-tetrahydroisoquinolin-8-yl)oxy)cyclopentane-1,2-diol]	3	4480	–	–	–
Cc1ncnc2c1ccn2[C@@H]1C[C@H]([C@H](O)c2ccc(Cl)cc2CN)[C@@H](O)[C@H]1O [Example 53, (1S,2R,3R,5R)-3-((S)-(2-(aminomethyl)-4-chlorophenyl)(hydroxy)methyl)-5-(4-methyl-7H-pyrrolo[2,3-d]pyrimidin-7-yl)cyclopentane-1,2-diol]	6	227	–	–	–
Cc1ncnc2c1ccn2[C@@H]1C[C@H](Oc2cc(C(F)F)c(F)c3c2CNCC3C)[C@@H](O)[C@H]1O (stereo partly drawn) [Example 212, (1S,2S,3S,5R)-3-((6-(difluoromethyl)-5-fluoro-4-methyl-1,2,3,4-tetrahydroisoquinolin-8-yl)oxy)-5-(4-methyl-7H-pyrrolo[2,3-d]pyrimidin-7-yl)cyclopentane-1,2-diol]	1	–	2	–	–
Cc1cc2c(c(O[C@H]3C[C@@H](n4ccc5c(C)ncnc54)[C@H](O)[C@@H]3O)c1)CNCC2 [Example 88, (1S,2S,3R,5S)-3-(4-methyl-7H-pyrrolo[2;3-d]pyrimidin-7-yl)-5-[(6-methyl-1,2,3,4-tetrahydroisoquinolin-8-yl)oxy]cyclopentane-1,2-diol]	1	545	–	–	–
Cc1ncnc2c1ccn2[C@@H]1C[C@H](Oc2ccc(Cl)cc2CN)[C@@H](O)[C@H]1O [Example 159, (1S,2S,3S,5R)-3-(2-(aminomethyl)-4-chlorophenoxy)-5-(4-methyl-7H-pyrrolo[2,3-d]pyrimidin-7-yl)cyclopentane-1,2-diol]	5	5200	–	–	–
Cc1cc2c(c(O[C@H]3C[C@@H](n4cc(F)c5c(C)ncnc54)[C@H](O)[C@@H]3O)c1)CNCC2 [Example 124, (1S,2S,3R,5S)-3-(5-fluoro-4-methyl-7H-pyrrolo[2,3-d]pyrimidin-7-yl)-5-((6-methyl-1,2,3,4-tetrahydroisoquinolin-8-yl)oxy)cyclopentane-1,2-diol]	2	3830	–	–	–
Nc1ncnc2c1c(F)cn2[C@@H]1C[C@H](Oc2cc(Br)cc3c2CNCC3)[C@@H](O)[C@H]1O [Example 101, (1S,2S,3R,5S)-3-(4-amino-5-fluoro-7H-pyrrolo[2,3-d]pyrimidin-7-yl)-5-((6-bromo-1,2,3,4-tetrahydroisoquinolin-8-yl)oxy)cyclopentane-1,2-diol]	1	112	–	–	–
Cc1ncnc2c1c(F)cn2[C@@H]1C[C@H](Oc2cccc3c2CNCC3)[C@@H](O)[C@H]1O [Example 117, (1S,2S,3R,5S)-3-(5-fluoro-4-methyl-7H-pyrrolo[2,3-d]pyrimidin-7-yl)-5-((1,2,3,4-tetrahydroisoquinolin-8-yl)oxy)cyclopentane-1,2-diol]	5	7140	–	–	–
Cc1ncnc2c1ccn2[C@@H]1C[C@H](Oc2cc(F)c(F)c3c2CNCC3)[C@@H](O)[C@H]1O [Example 92, (1S,2S,3S,5R)-3-((5,6-difluoro-1,2,3,4-tetrahydroisoquinolin-8-yl)oxy)-5-(4-methyl-7H-pyrrolo[2,3-d]pyrimidin-7-yl)cyclopentane-1,2-diol]	1	312	–	–	–
Cc1ncnc2c1c(F)cn2[C@@H]1C[C@H](Oc2cc(Cl)cc3c2CNCC3)[C@@H](O)[C@H]1O [Example 176, (1S,2S,3S,5R)-3-((6-chloro-1,2,3,4-tetrahydroisoquinolin-8-yl)oxy)-5-(5-fluoro-4-methyl-7H-pyrrolo[2,3-d]pyrimidin-7-yl)cyclopentane-1,2-diol]	2	1560	–	–	–
Cc1ncnc2c1ccn2[C@@H]1C[C@H](Oc2cc(F)c(F)cc2CN)[C@@H](O)[C@H]1O [Example 148, (1S,2S,3S,5R)-3-(2-(aminomethyl)-4,5-difluorophenoxy)-5-(4-methyl-7H-pyrrolo[2,3-d]pyrimidin-7-yl)cyclopentane-1,2-diol]	2	4880	–	–	–
Cc1ncnc2c1ccn2[C@@H]1C[C@H](Oc2cc(C#N)cc3c2CNCCO3)[C@@H](O)[C@H]1O [Example 202, 6-(((1S,2S,3S,4R)-2,3-dihydroxy-4-(4-methyl-7H-pyrrolo[2,3-d]pyrimidin-7-yl)cyclopentyl)oxy)-2,3,4,5-tetrahydrobenzo[f][1,4]oxazepine-8-carbonitrile]	1	1760	–	–	–
Cc1ncnc2c1ccn2[C@@H]1C[C@H]([C@H](O)c2ccc(F)c(F)c2)[C@@H](O)[C@H]1O [Example 3, (1S,2R,3R,5R)-3-[(S)-(3,4-difluorophenyl) (hydroxy)methyl]-5-(4-methyl-7H-pyrrolo[2,3-d]pyrimidin-7-yl)cyclopentane-1,2-diol]	32	–	–	1100	–
Cc1ncnc2c1ccn2[C@@H]1C[C@H](Oc2ccc(I)c3c2CNCC3)[C@@H](O)[C@H]1O [Example 98, (1S,2S,3S,5R)-3-((5-iodo-1,2,3,4-tetrahydroisoquinolin-8-yl)oxy)-5-(4-methyl-7H-pyrrolo[2,3-d]pyrimidin-7-yl)cyclopentane-1,2-diol]	11	1490	–	–	–
Cc1ncnc2c1ccn2[C@@H]1C[C@H](Oc2ccc(F)c3c2CNCC3C)[C@@H](O)[C@H]1O (single isomer, unassigned) [Example 183, hydrochloride]	1	–	–	–	136
Cc1ncnc2c1ccn2[C@@H]1C[C@H](Oc2cc(Br)cc3c2CNCC3)[C@@H](O)[C@H]1O [Example 89, (1S,2S,3S,5R)-3-((6-bromo-1,2,3,4-tetrahydroisoquinolin-8-yl)oxy)-5-(4-methyl-7H-pyrrolo[2,3-d]pyrimidin-7-yl)cyclopentane-1,2-diol]	1	195	–	–	–
Cc1cn([C@@H]2C[C@H](Oc3ccc(F)c4c3CNCC4)[C@@H](O)[C@H]2O)c2ncnc(N)c12 [Example 121, (1S,2S,3R,5S)-3-(4-amino-5-methyl-7H-pyrrolo[2,3-d]pyrimidin-7-yl)-5-((5-fluoro-1,2,3,4-tetrahydroisoquinolin-8-yl)oxy)cyclopentane-1,2-diol]	1	938	–	–	–
